The values below come from patent publication US20150374718A1, “Zhankuic Acid A and Analogs thereof and Their Use as an Anti-Inflammatory Agent” (National Cheng Kung University, priority 2014, published 2015).

For one series, the system named is LPS-induced lethality. Briefly: LPS-induced sepsis model (lethality). As to conditions: C3H/HeN mice; ZAA 2 or 10 mg/kg i.p., LPS 20 mg/kg i.p. The class given is in vivo. How it is done:
The mice were monitored every 2-4 h until all C3H/HeN mice in the ZAA-untreated and LPS-treated group expired.

For another series, the system named is COX2 and iNOS. Briefly: Immunoblot of COX2 and iNOS in LPS-stimulated peritoneal macrophages. Particulars: ZAA 1 h, then LPS 0.5 μg/mL 24 h; dose-dependent. The class given is cell-based, murine. On the procedure:
FIG. 1. ZAA inhibits the production of inflammation-related molecules in LPS- and IFN-γ-stimulated murine macrophages. […] Total cell lysates were subjected to immunoblotting for detecting COX2 and iNOS. Relative expression levels of COX2 and iNOS protein were quantified by densitometric analysis with ImageJ software and normalized according to the β-actin reference band. […] The presence of nitrite in the culture medium was analyzed by the Griess assay and used as an indication of NO levels (n=4; *p<0.05 and ***p<0.001 vs. LPS- or IFN-γ-induced cells). (C) Raw264.7 cells were cotransfected with pNFKB-Luc and pβ-actin-LacZ plasmids. […] Total cell lysates were harvested, and their luciferase activities were determined and normalized on the basis of β-galactosidase activities. Values are means±SD (n=4; *p<0.05 and **p<0.01 vs. LPS-stimulated cells). […] Numbers below the blots in D and those shown in the table below the blots in E represent the relative expression levels quantified by densitometric analysis with ImageJ software and normalized according to the β-actin reference bands. […]
C57BL/6 mice were injected intraperitoneally with 3% thioglycollate, and their peritoneal macrophages were collected 72 h later. […] The presence of nitrite (a metabolite of NO) in the culture medium was analyzed by the Griess assay (Sigma-Aldrich), as previously described (16).
(In general: A western blot detects proteins with antibodies after separation by electrophoresis.)

The test system of a further series is human neutrophils. As to conditions: reference (9), cited from earlier work.
Series [1] deals with S. choleraesuis. Briefly: S. choleraesuis-induced diarrhea model in mice.
Procedure: (A and B) C57BL/6 mice that had been pretreated intraperitoneally with ZAA (2 or 10 mg/kg) or the vehicle for 30 min were orally administered with kanamycin-resistant S. choleraesuis (2×10^9 CFU/mouse). Diarrhea was scored after 2 days on a 0-3 scale (0=normal pellets, 1=slightly loose feces, 2=loose feces, and 3=watery diarrhea) (A). Body weight was recorded every 2 days for 2 weeks (n=9-12; **p<0.01 and ***p<0.001) (B). (C) Fecal samples were collected at 24-h intervals until 96 h after S. choleraesuis infection and assessed for viable bacterial CFU counts (n=10; **p<0.01 and ***p<0.001).
The pEGFP-N1 (ΔEGFP)-transformed S. choleraesuis (2×10^9 CFU/mouse) was orally administered to mice with or without oral pretreatment of ZAA (2 or 10 mg/kg). […] Fecal samples were collected at 24-h intervals until 96 h after S. choleraesuis infection. S. choleraesuis in the feces was quantified by plating serial dilutions of fecal samples on kanamycin-containing agar plates and counting colonies after overnight incubation at 37° C. Mice were monitored daily for symptoms of diarrhea and loss of body weight. Diarrhea was defined according to a diarrhea score of 0-3 (0=normal pellets, 1=slightly loose feces, 2=loose feces, and 3=watery diarrhea) as previously described (21).
Series [2] relates to S. choleraesuis. Description: S. choleraesuis growth in LB broth (absorbance at 600 nm). Particulars: 24 or 48 h, various concentrations, listed as ZAA.
Procedure: S. choleraesuis was cultured in LB broth for 24 or 48 h in the presence of various concentrations of ZAA or ampicillin that served as a positive control. Bacterial growth was assessed by measurement of the absorbance at 600 nm and is expressed as means±SD of at least three independent experiments.
Series [3] concerns S. choleraesuis-induced TNF-α and IL-6 production. Description: ELISA of cytokines in S. choleraesuis-treated RAW264.7 cells. The class given is cell-based, murine. As to conditions: ZAA 1 h, 2×10^3 CFU/well. Background: In an ELISA, binding on a coated surface is turned into a signal by an enzyme label.

SMILES strings stand for the structures. “Also recorded” adds a separate entry of the source.

On to `C=C(CC[C@@H](C)[C@H]1CC[C@H]2C3=C(C(=O)C[C@]12C)[C@@]1(C)CCC(=O)[C@@H](C)[C@@H]1CC3=O)C(C)C(=O)O` (some centres unmarked) [No. 1, Zhankuic acid A], for which the “protection against LPS-induced lethality (survival)” value in the series with LPS-induced lethality is on record as “significantly protected”. In the series with COX2 and iNOS, the “level of COX2 induced by LPS” value is listed as “downregulated” and the “level of iNOS induced by LPS” value is given as “downregulated”. For the same compound, the ROS production result in the series with human neutrophils (fMLP- or PMA-activated peripheral human neutrophils) is given as “inhibits”. For the same compound, in the series on human neutrophils (human neutrophils), the cytotoxicity result is “without exerting significant cytotoxicity”. Besides, the “inflammatory responses by human neutrophils” value in the series on human neutrophils was “prevent inflammatory responses”. In addition, in the series with S. choleraesuis [1] (96 h after bacterial infection, ZAA 10 mg/kg), the fecal bacterial level result is “undetectable”. Further, in the series on S. choleraesuis [1] (C57BL/6 mice, ZAA 10 mg/kg), the body weight loss result is recorded as “dramatically attenuated” and the “time to return to normal body weight” value is reported as at most 2 weeks. Further, in the series on S. choleraesuis [1] (C57BL/6 mice, ZAA 2 or 10 mg/kg, 24-96 h, dose- and time-dependent), the fecal bacterial load entry is on record as “dramatically reduced”. The diarrhea score result with S. choleraesuis [1] (C57BL/6 mice, ZAA 2 or 10 mg/kg, scored after 2 days, 0-3 scale) is listed as “reduced”. In the series on S. choleraesuis [2], the “direct effect on growth / replication of Salmonella” value is listed as “cannot inhibit; also recorded: no direct inhibitory effects”. For the same compound, the “S. choleraesuis-induced TNF-α production” value in series [3] (4 h) was “effectively suppressed”. The “S. choleraesuis-induced IL-6 production” value in series [3] (6 h) was “effectively suppressed”.
